Tests used:
normal canines = experiment: Hemodynamic efficacy in normal canines (pressure-volume loop analysis); assay type: in vivo, beagle dogs; settings: i.v. infusion, Dose Rate (μmol/kg/min): CXL-1020 100, (1) 50, (2) 100, (83) 65, (84) 77
Experimental: The cardiovascular effects of nitroxyl donors were examined by means of pressure-volume (PV) curve (loops) analysis in conscious, sling-restrained beagle dogs. Animals were allowed free access to drinking water and a commercial canine diet under standard laboratory conditions. Fluorescent lighting was provided via an automatic timer for approximately 12 hours per day. On occasion, the dark cycle was interrupted intermittently due to study-related activities. Temperature and humidity were monitored and recorded daily and maintained to the maximum extent possible between 64° F. and 84° F. and 30% to 70%, respectively. The dogs were acclimated for a period of at least 1 week prior to surgery. Following surgery and recovery the animals were acclimated to sling restraint for a period up to 4.5 hours. Animals were fasted overnight prior to surgery. An indwelling venous catheter was placed in peripheral vein (e.g., cephalic) for administration of anesthetic. General anesthesia was induced intravenously (bolus) with buprenorphine (about 0.015 mg/kg) followed by an intravenous bolus of propofol (about 6 mg/kg). Additionally, a prophylactic antibiotic (cefazolin 20 to 50 mg/kg via i.v.) was given upon induction. […] Anesthesia was maintained with inhaled isoflurane (1% to 3%). Once a stable (surgical) plane of anesthesia had been established, a left-thoracotomy was performed (under strict aseptic conditions) and each animal was chronically instrumented with sono-micrometry crystals providing left-ventricular (LV) dimensions/volume. Additionally, a fluid-filled catheter and a solid-state monometer were placed in the left ventricle for pressure monitoring. A fluid-filled catheters was placed in the right ventricle (RV) and the aorta (Ao) for pressure monitoring/test article administration. […] The catheters/wires were aseptically tunneled and externalized between the scapulae. Over the course of the study, fluid-filled catheters were regularly (at least once weekly) flushed with a locking-solution in order to prevent both clotting and bacterial growth (2-3 mL of Taurolidine-Citrate solution, TCS-04; Access Technologies). Following the cardiovascular instrumentation, the right jugular vein was carefully exposed and cannulated with a bipolar pacing lead/catheter ([…]® Novus; Medtronic). Under fluoroscopic guidance, this pacing lead was advanced normograde into the right ventricle and actively affixed (screwed in) to the apical endocardium. The proximal end of the lead was secured to the pacing device (Kappa 900; Medtronic). Subsequently, the pacemaker was placed/secured in a subcutaneous pocket in the neck. Considering that the heart was exposed via a thoracotomy, a bipolar pacing wire was secured in the right ventricular mid-myocardium. This pacing lead was tunneled/externalized between the scapulae, and used in conjunction with an external impulse generator/pacemaker. The implanted endocardial pacemaker was used as a back-up to the external/epicardial pacemaker. Prior to closure of the chest from the thoracotomy, a chest tube was placed for drainage of any fluid and/or gas that accumulated from the surgical procedure. The tube was aspirated twice daily until the amount of fluid removed was less than 35 mL per aspiration in an approximately 24 hour period. The chest tube was then removed. All animals were administered a prophylactic antibiotic (cefazolin 20 to 50 mg/kg via i.v.) and pain medication (meloxicam at about 0.2 mg/kg via i.v.). If necessary, an additional analgesic was also administered which included a fentanyl patch (25 to 50 mcg/hour). All surgical incisions were closed in layers; the underlying musculature was closed with absorbable sutures and the skin was closed with staples. Following surgery, the animals were allowed to recover for at least 14 days. Cephalexin (20 to 50 mg/kg) was administered orally BID for at least 7 days and meloxicam (0.1 mg/kg) was administered SID orally or subcutaneously for at least 2 days after surgery. […]

dogs = experiment: Toxicological profile of compositions formulated at pH 4 or pH 6, 24 hour infusion at 3 μg/kg/min; assay type: in vivo; settings: FIG. 4; for effect of increasing infusate pH from approximately 4 to approximately 6 on toxicology: 1:1 molar donor:CAPTISOL, infused at 3 μg/kg/min
Experimental: For samples at a pH of 4, the compositions were prepared by admixing a 1:1 molar ratio of the nitroxyl donor:CAPTISOL®, lyophilizing the admixture, then diluting the lyophilized admixture into D5W. For samples at a pH of 6, the compositions were prepared by admixing a 1:1 molar ratio of the nitroxyl donor:CAPTISOL®, lyophilizing the admixture, then diluting the lyophilized admixture into D5W with 5 mM potassium phosphate. Compounds were infused at a rate of 3 μg/kg/min.

[1] = In vitro stability (half-life) in human plasma; assay type: in vitro ADME; settings: human plasma pH 7.4 with anticoagulant, 37° C.; for T1/2 (minutes) Human: 5 μM; for half-life at 5 μM: male, read-out: T1/2 (minutes) Human
Experimental: (§1) Certain compounds from Tables 1 and 2 and CXL-1020 were tested for their stability in phosphate buffered saline (PBS) and plasma. The assay system comprised (i) PBS, or plasma from rat, dog or human (at least 3 donors, male, pooled) at pH 7.4, and (ii) for tests conducted in plasma, an anticoagulant (sodium heparin or sodium citrate). Each test compound (5 μM) was incubated in PBS or plasma at 37° C. on a THERMOMIXER® with shaking. Three samples (n=3) were taken at each of seven sampling time points: 0, 10, 30, 60, 90, 180 and 360 minutes. The samples were immediately combined with 3 volumes (i.e., 3 times the volume of PBS or plasma) of acetonitrile containing 1% formic acid and an internal standard to terminate the reaction. AB SCIEX API 3000 LC-MS/MS analysis of the test compounds was performed without a standard curve. Half-lives (T1/2) of the test compounds were determined from graphs of the percent remaining values using the peak area response ratio. For compounds tested multiple times, the value provided in the Table represents an average of the replicate assays.

[2] = In vitro stability (half-life) in phosphate buffered saline (PBS) pH 7.4; assay type: physicochemical; settings: pH 7.4, 5 μM, PBS pH 7.4, 37° C., read-out: T1/2 (minutes) PBS
In short: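 Compounds at 5 μM were incubated at 37° C in PBS or in rat, dog or pooled human plasma (heparin or citrate) at pH 7.4. Triplicates were sampled from 0 to 360 minutes and quenched in acetonitrile/formic acid. LC-MS/MS percent remaining gave T1/2, averaged over replicate runs.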

[3] = In vitro stability (half-life) in rat plasma; assay type: in vitro ADME; settings: male, rat, plasma, pH 7.4, 5 μM, rat plasma pH 7.4 with anticoagulant, 37° C.; read-out: T1/2 (minutes) Rat
Experimental: as §1

[4] = In vitro stability (half-life) in dog plasma; assay type: in vitro ADME; settings: male, dog, plasma, pH 7.4, 5 μM, dog plasma pH 7.4 with anticoagulant, 37° C.; read-out: T1/2 (minutes) Dog
Experimental: as §1

Row | Compound | EDV (normal canines) [% Change from Baseline] | ESP (normal canines) [% Change from Baseline] | ESPVR (normal canines) [% Change from Baseline] | HR (normal canines) [% Change from Baseline] | PRSW (normal canines) [% Change from Baseline] | SW (normal canines) [% Change from Baseline] | Tau (normal canines) [% Change from Baseline] | effect of increasing infusate pH from approximately 4 to approximately 6 on toxicology (dogs) | improvement of inflammatory profile on increasing infusate pH from 4 to 6 (dogs; dogs) | T1/2 (minutes) Human [1] [min] | half-life at 5 μM [2] [min] | half-life at 5 μM [3] [min] | half-life at 5 μM [4] [min] | half-life at 5 μM [1] [min]
1 | CS(=O)(=O)c1ccccc1S(=O)(=O)NO [CXL-1020, N-hydroxy-2-methanesulfonylbenzene-1-sulfonamide, reference compound] | −20.51 ± 7.63 | −17.79 ± 3.09 | 28.25 ± 8.69 | 6.71 ± 4.72 | 12.60 ± 2.96 | −13.96 ± 5.51 | −6.58 ± 4.53 | improved the toxicology | approximately 3 fold |  |  |  |  | 
2 | Cc1ccc(S(=O)(=O)NO)o1 [Compound 1, N-Hydroxy-5-methylfuran-2-sulfonamide] | −6 ± 2 | −18 ± 2 | 19 ± 1 | −4 ± 2 | 12 ± 1 | −11 ± 4 | −6 ± 1 |  |  | 65 |  |  |  | 
3 | CS(=O)(=O)c1cccc(S(=O)(=O)NO)c1 [Compound 2, N-Hydroxy-3-methanesulfonylbenzene-1-sulfonamide] | −17.41 ± 1.58 | −15.22 ± 2.39 | 25.87 ± 5.04 | −6.17 ± 5.58 | 12.88 ± 1.12 | −17.56 ± 2.66 | −6.40 ± 7.11 | improved the toxicology |  | 37 |  |  |  | 
4 | O=S(=O)(NO)c1ccco1 [Compound 83, N-Hydroxyfuran-2-sulfonamide] | −16.88 ± 1.69 | −21.99 ± 3.32 | 29.33 ± 8.36 | 2.89 ± 2.94 | 19.79 ± 3.39 | −19.18 ± 6.70 | −10.10 ± 1.56 |  |  |  | 37 | 43 | 38 | 16
5 | Cc1ccc(S(=O)(=O)NO)s1 [Compound 84, N-Hydroxy-5-methylthiophene-2-sulfonamide] | −10.99 ± 2.33 | −16.85 ± 2.33 | 50.71 ± 8.14 | 4.31 ± 2.98 | 17.70 ± 2.35 | −13.98 ± 1.14 | −9.60 ± 6.06 |  |  |  | 125 | 65 | 55 | 60
6 | Cn1ccc(S(=O)(=O)NO)n1 [Compound 85, N-Hydroxy-1-methyl-1H-pyrazole-3-sulfonamide] |  |  |  |  |  |  |  |  |  |  | 59 |  | 72 | 
